Values belong to the compound of their own block, whether it stands above or below them. Calls of active or inactive are those of the source. The rule behind the calls is not given here. Bridge positions count the residues as written; N and C are the ends. Peptide text beside a SMILES is read from it. * marks the point of attachment. Bz = O=C(c1ccccc1)*
What was measured:
[1] = molecular target: Nociceptin receptor (Mus musculus) (UniProt P35377); test: Agonist activity at NOR in mouse Neuro-2a cells assessed as stimulation of ERK phosphorylation at 1 uM after 35 mins post dose by Alphascreen Surefire assay
Nociceptin receptor (Mus musculus), sequence (P35377 whole entry): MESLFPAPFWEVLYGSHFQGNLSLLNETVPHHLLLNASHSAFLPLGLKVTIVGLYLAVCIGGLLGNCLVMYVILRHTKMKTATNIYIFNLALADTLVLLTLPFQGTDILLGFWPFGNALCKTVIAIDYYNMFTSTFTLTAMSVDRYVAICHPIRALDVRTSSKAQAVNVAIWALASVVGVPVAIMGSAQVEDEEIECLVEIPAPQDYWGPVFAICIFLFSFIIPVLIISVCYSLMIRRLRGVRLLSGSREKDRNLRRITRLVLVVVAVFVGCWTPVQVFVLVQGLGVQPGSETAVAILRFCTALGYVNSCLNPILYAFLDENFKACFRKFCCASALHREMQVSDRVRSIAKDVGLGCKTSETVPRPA

Nociceptin receptor [2] = molecular target: T1, Nociceptin receptor (Mus musculus, UniProt P35377); test: Agonist activity at NOR in mouse Neuro-2a cells assessed as stimulation of ERK phosphorylation after 35 mins post dose by Alphascreen Surefire assay
T1 sequence (P35377 whole entry): as above

[3] = molecular target: Nociceptin receptor (Mus musculus) (UniProt P35377); test: Agonist activity at NOR in mouse Neuro-2a cells assessed as stimulation of ERK phosphorylation after 35 mins post dose by Alphascreen Surefire assay relative to control
[4] = Cytotoxicity in human erythrocytes assessed as induction of hemolysis at 100 uM; assay type: cell-based; conditions: erythrocyte
[5] = Half life in human serum; assay type: ADME, cell-free
[6] = molecular target: Nociceptin receptor (Mus musculus) (UniProt P35377); test: Antagonist activity at NOR in mouse Neuro-2a cells assessed as inhibition of nociceptin-induced ERK phosphorylation at 100 nM administered for 15 mins before nociceptin challenge by Alphascreen Surefire assay; assay type: functional, cell-based
Nociceptin receptor [7] = molecular target: T1, Nociceptin receptor; test: Antagonist activity at NOR in mouse Neuro-2a cells assessed as inhibition of nociceptin-induced ERK phosphorylation administered for 15 mins before nociceptin challenge by Alphascreen Surefire assay; assay type: functional, cell-based
Nociceptin receptor [8] = molecular target: T1, Nociceptin receptor; test: Antagonist activity at NOR in mouse Neuro-2a cells assessed as inhibition of nociceptin-induced ERK phosphorylation administered for 15 mins before nociceptin challenge by competitive inhibition assay; assay type: functional, cell-based; conditions: read-out: pA2 (converted)

SMILES: C[C@@H](O)[C@H](NC(=O)[C@H](Cc1ccc(F)cc1)NC(=O)CNC(=O)CNC(=O)CNC(=O)c1ccccc1)C(=O)NCC(=O)N[C@H]1CCCCNC(=O)C[C@@H](C(=O)N[C@@H](CCCNC(=N)N)C(=O)N[C@@H](CCCCN)C(=O)N[C@H]2CCCCNC(=O)C[C@@H](C(N)=O)NC(=O)[C@H](CCC(N)=O)NC(=O)[C@H](CC(N)=O)NC(=O)[C@H](CCCCN)NC2=O)NC(=O)[C@H](CO)NC(=O)[C@H](CCCCN)NC(=O)[C@H](CCCNC(=N)N)NC1=O
Activity [1]: inactive

SMILES: CC(C)C[C@H](NC(=O)[C@H](CCCCN)NC(=O)[C@H](CCCN=C(N)N)NC(=O)[C@H](C)NC(=O)[C@H](CO)NC(=O)[C@H](CCCCN)NC(=O)[C@H](CCCN=C(N)N)NC(=O)[C@H](C)NC(=O)CNC(=O)[C@@H](NC(=O)[C@H](Cc1ccc(F)cc1)NC(=O)CNC(=O)CNC(=O)[C@@H](N)Cc1ccccc1)[C@@H](C)O)C(=O)N[C@@H](CCCCN)C(=O)N[C@@H](CC(N)=O)C(=O)N[C@@H](CCC(N)=O)C(N)=O
EC50 (Nociceptin receptor [2]): 0.36 nM

SMILES: C[C@@H](O)[C@H](NC(=O)[C@H](Cc1ccccc1)NC(=O)CNC(=O)CNC(=O)[C@@H](N)Cc1ccccc1)C(=O)NCC(=O)N[C@H]1CCCCNC(=O)C[C@@H](C(=O)N[C@@H](CCCN=C(N)N)C(=O)N[C@@H](CCCCN)C(N)=O)NC(=O)[C@H](CO)NC(=O)[C@H](CCCCN)NC(=O)[C@H](CCCN=C(N)N)NC1=O (H-FGGFTGKRKSDRK-NH2; lactam 7-11)
EC50 (Nociceptin receptor [2]): 30 nM

SMILES: C[C@@H](O)[C@H](NC(=O)[C@H](Cc1ccc(F)cc1)NC(=O)CNC(=O)CNC(=O)[C@@H](N)Cc1ccccc1)C(=O)NCC(=O)N[C@H]1CCCCNC(=O)C[C@@H](C(=O)N[C@@H](CCCN=C(N)N)C(=O)N[C@@H](CCCCN)C(=O)N[C@H]2CCCCNC(=O)C[C@@H](C(N)=O)NC(=O)[C@H](CCC(N)=O)NC(=O)[C@H](CC(N)=O)NC(=O)[C@H](CCCCN)NC2=O)NC(=O)[C@H](CO)NC(=O)[C@H](CCCCN)NC(=O)[C@H](CCCN=C(N)N)NC1=O
EC50 (Nociceptin receptor [2]): 0.04 nM | EC50 (Nociceptin receptor [2]; neuro-2a): 0.04 nM

SMILES: C[C@@H](O)[C@H](NC(=O)[C@H](Cc1ccccc1)NC(=O)CNC(=O)CNC(=O)[C@@H](N)Cc1ccccc1)C(=O)NCC(=O)N[C@H]1CCCCNC(=O)C[C@@H](C(N)=O)NC(=O)[C@H](CCCCN)NC(=O)[C@H](CCCNC(=N)N)NC(=O)[C@@H]2CC(=O)NCCCC[C@@H](CC(=O)[C@H](CCCCN)NC(=O)[C@H](CCCNC(=N)N)NC1=O)C(=O)N2
Emax [3]: 92%

SMILES: CC(C)C[C@H](NC(=O)[C@H](CCCCN)NC(=O)[C@H](CCCN=C(N)N)NC(=O)[C@H](C)NC(=O)[C@H](CO)NC(=O)[C@H](CCCCN)NC(=O)[C@H](CCCN=C(N)N)NC(=O)[C@H](C)NC(=O)CNC(=O)[C@@H](NC(=O)[C@H](Cc1ccccc1)NC(=O)CNC(=O)CNC(=O)[C@@H](N)Cc1ccccc1)[C@@H](C)O)C(=O)N[C@@H](C)C(=O)N[C@@H](CC(N)=O)C(=O)N[C@@H](CCC(N)=O)C(=O)O [NOCICEPTIN]
Activity [4]: Non-toxic | half-life [5]: 1 h

SMILES: CC(=O)N[C@H](C(=O)N[C@H]1CCCCNC(=O)C[C@@H](C(=O)N[C@H]2CCCCNC(=O)C[C@@H](C(N)=O)NC(=O)[C@H](CC(C)C)NC(=O)[C@H](CCCCN)NC(=O)[C@H](CCCNC(=N)N)NC2=O)NC(=O)[C@H](CCCCN)NC(=O)[C@H](CCCNC(=N)N)NC(=O)[C@H](C)NC1=O)[C@@H](C)O (Ac-TKARKDKRKLD-NH2; lactam 2-6, 7-11)
inhibition [6]: inactive

SMILES: CC(C)C[C@@H]1NC(=O)[C@H](CCCCN)NC(=O)[C@H](CCCN=C(N)N)NC(=O)[C@@H](NC(=O)[C@@H]2CC(=O)NCCCC[C@H](NC(=O)[C@@H](NC(=O)[C@H](Cc3ccccc3)NC(=O)CNC(=O)CNC(=O)CNC(=O)c3ccccc3)[C@@H](C)O)C(=O)N[C@@H](C)C(=O)N[C@@H](CCCN=C(N)N)C(=O)N[C@@H](CCCCN)C(=O)N2)CCCCNC(=O)C[C@@H](C(N)=O)NC1=O (Bz-GGGFTKARKDKRKLD-NH2; lactam 6-10, 11-15)
IC50 (Nociceptin receptor [7]; read-out: pIC50 (converted)): > 100 nM

SMILES: C[C@@H](O)[C@H](NC(=O)[C@H](Cc1ccccc1)NC(=O)CNC(=O)CNC(=O)[C@@H](N)Cc1ccccc1)C(=O)NCC(=O)N[C@H]1CCCCNC(=O)C[C@@H](C(N)=O)NC(=O)[C@H](CCCCN)NC(=O)[C@H](CCCN=C(N)N)NC(=O)[C@@H]2CC(=O)NCCCC[C@@H](CC(=O)[C@H](CCCCN)NC(=O)[C@H](CCCN=C(N)N)NC1=O)C(=O)N2
EC50 (Nociceptin receptor [2]): 14 nM

SMILES: CC(C)C[C@H](NC(=O)[C@H](CCCCN)NC(=O)[C@H](CCCN=C(N)N)NC(=O)[C@H](C)NC(=O)[C@H](CO)NC(=O)[C@H](CCCCN)NC(=O)[C@H](CCCN=C(N)N)NC(=O)[C@H](C)NC(=O)CNC(=O)[C@@H](NC(=O)[C@H](Cc1ccc(F)cc1)NC(=O)CNC(=O)CNC(=O)CNCc1ccccc1)[C@@H](C)O)C(=O)N[C@@H](CCCCN)C(=O)N[C@@H](CC(N)=O)C(=O)N[C@@H](CCC(N)=O)C(N)=O
pIC50 (Nociceptin receptor [7]; neuro-2a): 7.49

SMILES: CC(=O)N[C@H](C(=O)N[C@H]1CCCCNC(=O)C[C@@H](C(=O)N[C@H]2CCCCNC(=O)C[C@@H](C(N)=O)NC(=O)[C@H](CC(C)C)NC(=O)[C@H](CCCCN)NC(=O)[C@H](CCCN=C(N)N)NC2=O)NC(=O)[C@H](CCCCN)NC(=O)[C@H](CCCN=C(N)N)NC(=O)[C@H](C)NC1=O)[C@@H](C)O (Ac-TKARKDKRKLD-NH2; lactam 2-6, 7-11)
IC50 (Nociceptin receptor [7]; read-out: pIC50 (converted)): > 100 nM

SMILES: C[C@@H](O)[C@H](NC(=O)[C@H](Cc1ccc(F)cc1)NC(=O)CNC(=O)CNC(=O)CNC(=O)c1ccccc1)C(=O)NCC(=O)N[C@H]1CCCCNC(=O)C[C@@H](C(=O)N[C@@H](CCCN=C(N)N)C(=O)N[C@@H](CCCCN)C(=O)N[C@H]2CCCCNC(=O)C[C@@H](C(N)=O)NC(=O)[C@H](CCC(N)=O)NC(=O)[C@H](CC(N)=O)NC(=O)[C@H](CCCCN)NC2=O)NC(=O)[C@H](CO)NC(=O)[C@H](CCCCN)NC(=O)[C@H](CCCN=C(N)N)NC1=O
Kb (Nociceptin receptor [8]): 1.95 nM | IC50 (Nociceptin receptor [7]; read-out: IC50): 7.5 nM

SMILES: CC(C)C[C@H](NC(=O)[C@H](CCCCN)NC(=O)[C@H](CCCNC(=N)N)NC(=O)[C@H](C)NC(=O)[C@H](CO)NC(=O)[C@H](CCCCN)NC(=O)[C@H](CCCNC(=N)N)NC(=O)[C@H](C)NC(=O)CNC(=O)[C@@H](NC(=O)[C@H](Cc1ccc(F)cc1)NC(=O)CNC(=O)CNC(=O)CNC(=O)c1ccccc1)[C@@H](C)O)C(=O)N[C@@H](CCCCN)C(=O)N[C@@H](CC(N)=O)C(=O)N[C@@H](CCC(N)=O)C(N)=O
Activity [1]: inactive

inhibition [6]: inactive
SMILES: CC(C)C[C@@H]1NC(=O)[C@H](CCCCN)NC(=O)[C@H](CCCNC(=N)N)NC(=O)[C@@H](NC(=O)[C@@H]2CC(=O)NCCCC[C@H](NC(=O)[C@@H](NC(=O)[C@H](Cc3ccccc3)NC(=O)CNC(=O)CNC(=O)CNC(=O)c3ccccc3)[C@@H](C)O)C(=O)N[C@@H](C)C(=O)N[C@@H](CCCNC(=N)N)C(=O)N[C@@H](CCCCN)C(=O)N2)CCCCNC(=O)C[C@@H](C(N)=O)NC1=O (Bz-GGGFTKARKDKRKLD-NH2; lactam 6-10, 11-15)

SMILES: C[C@@H](O)[C@H](NC(=O)[C@H](Cc1ccccc1)NC(=O)CNC(=O)CNC(=O)[C@@H](N)Cc1ccccc1)C(=O)NCC(=O)N[C@H]1CCCCNC(=O)C[C@@H](C(=O)N[C@@H](CCCNC(=N)N)C(=O)N[C@@H](CCCCN)C(N)=O)NC(=O)[C@H](CO)NC(=O)[C@H](CCCCN)NC(=O)[C@H](CCCNC(=N)N)NC1=O (H-FGGFTGKRKSDRK-NH2; lactam 7-11)
Emax [3]: 80%

SMILES: C[C@@H](O)[C@H](NC(=O)[C@H](Cc1ccccc1)NC(=O)CNC(=O)CNC(=O)CNC(=O)c1ccccc1)C(=O)NCC(=O)N[C@H]1CCCCNC(=O)C[C@@H](C(=O)N[C@@H](CCCN=C(N)N)C(=O)N[C@@H](CCCCN)C(=O)N[C@H]2CCCCNC(=O)C[C@@H](C(N)=O)NC(=O)[C@H](CCC(N)=O)NC(=O)[C@H](CC(N)=O)NC(=O)[C@H](CCCCN)NC2=O)NC(=O)[C@H](CO)NC(=O)[C@H](CCCCN)NC(=O)[C@H](CCCN=C(N)N)NC1=O (Bz-GGGFTGKRKSDRKKKNQD-NH2; lactam 7-11, 14-18)
IC50 (Nociceptin receptor [7]; read-out: IC50): 12 nM

half-life [5]: > 6 h
SMILES: C[C@@H]1NC(=O)[C@@H](NC(=O)[C@H](CCCCN)NC(=O)[C@H](CCCN=C(N)N)NC(=O)[C@@H]2CC(=O)NCCCC[C@H](NC(=O)CNC(=O)[C@@H](NC(=O)[C@H](Cc3ccccc3)NC(=O)CNC(=O)CNC(=O)[C@@H](N)Cc3ccccc3)[C@@H](C)O)C(=O)N[C@@H](CCCN=C(N)N)C(=O)N[C@@H](CCCCN)C(=O)N[C@@H](CO)C(=O)N2)CCCCNC(=O)C[C@@H](C(N)=O)NC(=O)[C@H](CCC(N)=O)NC(=O)[C@H](CC(N)=O)NC1=O
Activity [4]: Non-toxic

SMILES: C[C@H](NC(=O)CNC(=O)[C@@H](NC(=O)[C@H](Cc1ccccc1)NC(=O)CNC(=O)CNC(=O)[C@@H](N)Cc1ccccc1)[C@@H](C)O)C(=O)N[C@@H](CCCNC(=N)N)C(=O)N[C@@H](CCCCN)C(=O)N[C@@H](CO)C(=O)N[C@@H](C)C(=O)N[C@@H](CCCNC(=N)N)C(=O)N[C@@H](CCCCN)C(N)=O
Emax [3]: 90%

— ChEMBL document CHEMBL1629538 (J Med Chem, 2010)
